Data from US6855730B2, “3-methylidenyl-2-indolinone modulators of protein kinase” (Sugen, Inc., priority 1998, dated 2005).

Experiments:
[1] = biological target: T1, PDGFR-β (Homo sapiens, UniProt P09619); assay: Biochemical PDGFR assay (ELISA, PDGFR-β expressing NIH 3T3 cell lysate); details: read-out: bio PDGF IC50
T1 construct: host or cells: NIH 3T3
Summary of the method: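 Phosphorylation was read by ELISA (anti-phosphotyrosine serum, peroxidase secondary, ABTS at 410 nm) after a 30 min room-temperature reaction with 20 μM ATP, EDTA-stopped. Kinase was lysate-derived PDGFR-β (NIH 3T3) immobilised via 28D4C10 antibody, compound added 30 min before ATP.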

[2] = biological target: T2, src protein kinase (Gallus gallus, UniProt P00523); assay: Biochemical SRC assay (phosphorylation of biotinylated peptide); details: read-out: bio src IC50
T2 construct: host or cells: Schizosaccharomyces pombe SP200
Method: This assay is used to determine src protein kinase activity measuring phosphorylation of a biotinylated peptide as the readout.
Yeast transformed with src (Sugen, Inc., Redwood City, Calif.). • b. Cell lysates: Yeast cells expressing src are pelleted, washed once with water, re-pelleted and stored at −80° C. until use. • c. N-terminus biotinylated [sequence] is prepared by standard procedures well known to those skilled in the art. • d. DMSO: Sigma, St. Louis, Mo. • e. […] Vecastain ELITE ABC reagent: Vector, Burlingame, Calif. • h. […] S. Pombe strain SP200 (h-s leul.32 ura4 ade210) is grown as described and transformations are pRSP expression plasmids are done by the lithium acetate method (Superti-Furga, supra). Cells are grown in the presence of 1 μM thiamine to repress expression from the nmtl promoter or in the absence of thiamine to induce expression. • i. […] Turbo TMB-ELISA peroxidase substrate: Pierce Chemical.
Buffer Solutions • a. PBS (Dulbecco's Phosphate-Buffered Saline): GIBCO PBS, GIBCO Cat. #450-1300EB. • b. Blocking Buffer: 5% Non-fat milk (Carnation) in PBS. • c. Carbonate Buffer: Na2CO4 from Fischer, Cat. # S495, make up 100 mM stock solution. • d. Kinase Buffer: 1.0 ml (from 1M stock solution) MgCl2, 0.2 ml (from a 1M stock solution) MnCl2, 0.2 ml (from a 1M stock solution) DTT, 5.0 ml (from a 1M stock solution) HEPES, 0.1 ml TX-100, bring to 10 ml total volume with MilliQ H2O. • e. […] NaCl: Fischer Cat. # S271-10, Make up 5M stock solution with MilliQ H2O. • i. […] MgCl2: Fischer Cat. # M33-500, make up 1M stock solution with MilliQ H2O. • k. […] MnCl2: Fischer Cat. # M87-100, make up 1M stock solution with MilliQ H2O. • n. DTT: -Fischer Cat. # BP172-5. • o. […] Kinase Reaction Mixture: Amount per assay plate (100 wells): 1.0 ml Kinase Buffer, 200 λg GST-ζ, bring to final volume of 8.0 ml with MilliQ H2O. • q. […] Then add 1 drop of reagent B. Put tube on orbital shaker at room temperature and mix for 30 minutes.
Preparation of src Coated ELISA Plate. • 1. Coat ELISA plate with 0.5 μg/well anti-src mab in 100 μl of pH 9.6 sodium carbonate buffer, hold at 40° C. overnight. • 2. Wash wells once with PBS. • 3. […] Wash plate 5× with PBS. • 5. Add 10 μg/well of src transformed yeast lysates diluted in Lysis Buffer (0.1 ml total volume per well). (Amount of lysate may vary between batches.) Shake plate for 20 minutes at room temperature.
Preparation of Phosphotyrosine Antibody-coated ELISA Plate. • 1. 4G10 plate: coat 0.5 μg/well 4G10 in 100 μl PBS overnight at 4° C. and block with 150 μl of 5% milk in PBS for 30 minutes at room temperature.
Kinase Assay Procedure. • 1. Remove unbound proteins from plates and wash plates 5× with PBS. • 2. […] Wash plate 5× with TBST. • 10. Incubate with Vectastain ELITE ABC reagent (100 μl/well) for 30 min. at room temperature. • 11. Wash the wells 5× with TBST. • 12. Develop with Turbo TMB.

[3] = biological target: T3, 3T3 cell line genetically engineered to express human PDGF-R (Homo sapiens, UniProt P09619); assay: PDGF-induced BrdU incorporation assay; type: cell-based; details: read-out: PDGF-Induced BrdU Incorp. IC50
T3 construct: expressed in transfected cells; host or cells: 3T3
Method: The general procedure is as follows: a compound is introduced to cells expressing the test kinase, either naturally or recombinantly, for a selected period of time after which, if the test kinase is a receptor, a ligand known to activate the receptor is added. […] The cellular/biologic assays described herein measure the amount of DNA made in response to activation of a test kinase, which is a general measure of a proliferative response. The general procedure for this assay is as follows: a compound is introduced to cells expressing the test kinase, either naturally or recombinantly, for a selected period of time after which, if the test kinase is a receptor, a ligand known to activate the receptor is added. After incubation at least overnight, a DNA labeling reagent such as Bromodeoxyuridine (BrdU) or 3H-thymidine is added. The amount of labeled DNA is detected with either an anti-BrdU antibody or by measuring radioactivity and is compared to control cells not contacted with a test compound.
PDGF-Induced BrdU Incorporation Assay
Protocol • (1) Cells are seeded at 8000 cells/well in DMEM, 10% CS, 2mM Gln in a 96 well plate. […] The negative control wells receive serum free DMEM with 0.1% BSA only, the positive control cells receive the ligand (PDGF) but no test compound. […] FixDenat solution is added (50 μ/well) and the plates are incubated at room temperature for 45 minutes on a plate shaker. • (6) The FixDenat solution is thoroughly removed by decanting and tapping the inverted plate on a paper towel. Milk is added (5% dehydrated milk in PBS, 200 μ/well) as a blocking solution and the plate is incubated for 30 minutes at room temperature on a plate shaker. • (7) The blocking solution is removed by decanting and the wells are washed once with PBS. Anti-BrdU-POD solution (1:100 dilution in PBS, 1% BSA) is added (100 μl/well) and the plate is incubated for 90 minutes at room temperature on a plate shaker. • (8) The antibody conjugate is thoroughly removed by decanting and rinsing the wells 5 times with PBS, and the plate is dried by inverting and tapping on a paper towel. • (9) TMB substrate solution is added (100 μl/well) and incubated for 20 minutes at room temperature on a plate shaker until color development is sufficient for photometric detection. • (10) The absorbance of the samples are measured at 410 nm (in “dual wavelength” mode with a filter reading at 490 nm, as a reference wavelength) on a Dynatech ELISA plate reader.

T1 sequence (P09619 33-1106): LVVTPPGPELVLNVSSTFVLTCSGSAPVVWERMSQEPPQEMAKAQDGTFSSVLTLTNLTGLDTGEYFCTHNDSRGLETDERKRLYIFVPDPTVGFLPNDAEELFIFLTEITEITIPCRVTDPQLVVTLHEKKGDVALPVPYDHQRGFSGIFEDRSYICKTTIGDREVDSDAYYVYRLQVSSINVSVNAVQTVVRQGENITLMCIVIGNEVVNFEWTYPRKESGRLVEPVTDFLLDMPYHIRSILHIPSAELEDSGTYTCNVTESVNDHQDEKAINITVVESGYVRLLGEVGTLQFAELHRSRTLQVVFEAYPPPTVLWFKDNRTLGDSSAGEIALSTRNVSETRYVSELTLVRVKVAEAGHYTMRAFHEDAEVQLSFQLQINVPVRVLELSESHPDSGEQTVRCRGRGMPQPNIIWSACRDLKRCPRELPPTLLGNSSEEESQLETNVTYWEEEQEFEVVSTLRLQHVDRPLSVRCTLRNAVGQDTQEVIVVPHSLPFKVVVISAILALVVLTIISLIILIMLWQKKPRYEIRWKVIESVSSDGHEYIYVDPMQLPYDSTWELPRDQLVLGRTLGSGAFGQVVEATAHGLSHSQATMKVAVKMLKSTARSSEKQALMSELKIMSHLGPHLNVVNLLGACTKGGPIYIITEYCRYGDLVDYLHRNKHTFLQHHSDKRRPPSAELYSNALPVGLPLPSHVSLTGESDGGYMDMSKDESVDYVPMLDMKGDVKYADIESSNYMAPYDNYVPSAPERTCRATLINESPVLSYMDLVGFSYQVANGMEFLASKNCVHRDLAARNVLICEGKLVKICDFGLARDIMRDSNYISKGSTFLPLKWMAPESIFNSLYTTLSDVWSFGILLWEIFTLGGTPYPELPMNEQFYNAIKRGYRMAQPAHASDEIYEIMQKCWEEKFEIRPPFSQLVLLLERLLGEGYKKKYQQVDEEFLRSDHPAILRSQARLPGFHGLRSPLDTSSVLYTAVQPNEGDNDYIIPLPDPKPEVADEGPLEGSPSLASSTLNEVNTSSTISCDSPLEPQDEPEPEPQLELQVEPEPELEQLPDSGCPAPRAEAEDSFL

Row | SMILES | IC50 [1] [µM] | IC50 [2] [µM] | IC50 [3] [µM]
1 | CCOC(=O)c1c(C)[nH]c(/C=C2\C(=O)Nc3ccc(Br)cc32)c1CCC(=O)O [Compound 114, 5-(5-Bromo-2-oxo-1,2-dihydroindol-3-ylidenemethyl)-4-(2-carboxyethyl)-2-methyl-1H-pyrrole-3-carboxylic acid ethyl ester] | 0.05 | – | –
2 | Cc1cc(CCC(=O)O)c(/C=C2\C(=O)Nc3ccc(Br)cc32)[nH]1 [Compound 116, 3-[2-(5-Bromo-2-oxo-1,2-dihydroindol-3-ylidenemethyl)-5-methyl-1H-pyrrol-3-yl]-propionic acid] | 0.02 | – | –
3 | COc1c(C(C)C)cc(/C=C2/C(=O)Nc3ccccc32)cc1C(C)C [Example 1, 3-(3,5-Diisopropyl-4-methoxybenzylidene)-1,3-dihydroindol-2-one] | > 100 | – | –
4 | COc1c(C(C)C)cc(/C=C2/C(=O)Nc3ccc(Cl)cc32)cc1C(C)C [Example 2, 5-Chloro-3-(3,5-diisopropyl-4-methoxybenzylidene)-1,3-dihydroindol-2-one] | > 100 | – | –
5 | O=C1Nc2ccc(N=Cc3cc4ccccc4[nH]3)cc2C1=Cc1cc2ccccc2[nH]1 [Example 171, 3-(1H-indol-2-ylmethylene)-5-[(1H-indol-2-ylmethylene)-amino]-1,3-dihydroindol-2-one] | 68.6 | – | –
6 | NS(=O)(=O)c1ccc2c(c1)/C(=C/c1c[nH]c3ccccc13)C(=O)N2 [Example 172, 3-(1H-Indol-3-ylmethylene)-2-oxo-2,3-dihydro-1H-indole-5-sulfonic acid amide] | 89.4 | – | –
7 | CNS(=O)(=O)c1ccc2c(c1)/C(=C/c1cc3ccccc3[nH]1)C(=O)N2 [Example 173, 3-(1H-Indol-2-ylmethylene)-2-oxo-2,3-dihydro-1H-indole-5-sulfonic acid methylamide] | 69.1 | – | –
8 | O=C1Nc2ccc(C(=O)O)cc2/C1=C/c1c[nH]c2ccccc12 [Example 174, 3-(1H-Indol-3-ylmethylene)-2-oxo-2,3-dihydro-1H-indole-5-carboxylic acid] | 2.5 | – | –
9 | O=C1Nc2ccc(C(=O)O)cc2/C1=C/c1ccc2[nH]ccc2c1 [Example 177, 3-(1H-Indol-5-ylmethylene)-2-oxo-2,3-dihydro-1H-indole-5-carboxylic acid] | > 100 | – | –
10 | Nc1ccc2c(c1)/C(=C/c1ccc3[nH]ccc3c1)C(=O)N2 [Example 179, 5-Amino-3-(1H-indol-5-ylmethylene)-1,3-dihydro-indol-2-one] | > 100 | – | –
11 | Cc1c(/C=C2\C(=O)Nc3ccc(N)cc32)[nH]c2ccccc12 [Example 180, 5-Amino-3-(3-methyl-1H-indol-2-ylmethylene)-1,3-dihydroindol-2-one] | 1.11 | – | –
12 | Cc1[nH]c2ccccc2c1/C=C1\C(=O)Nc2ccc(C(=O)O)cc21 [Example 182, 3-(2-Methyl-1H-indol-3-ylmethylene)-2-oxo-2,3-dihydro-1H-indole-5-carboxylic acid] | 5.4 | – | –
13 | Cc1[nH]c2ccccc2c1/C=C1\C(=O)Nc2ccc(N)cc21 [Example 187, 5-Amino-3-(2-methyl-1H-indol-3-ylmethylene)-1,3-dihydroindol-2-one] | > 100 | – | –
14 | O=C(O)CCc1c(/C=C2\C(=O)Nc3ccccc32)[nH]c2c1CCCC2 [Example 190, 3-[2-(2-Oxo-1,2-dihydro-indol-3-ylidenemethyl)-4,5,6,7-tetrahydro-1H-indol-3-yl]-propionic acid] | 2.08 | 0.11 | 2.9
15 | O=C(O)CCc1c(/C=C2\C(=O)Nc3ccc(Cl)cc32)[nH]c2c1CCCC2 [Example 191, 3-[2-(5-Chloro-2-oxo-1,2-dihydroindol-3-ylidenemethyl)-4,5,6,7-tetrahydro-1H-indol-3-yl]-propionic acid] | 0.05 | 12 | 1.1
16 | O=C(O)CCc1c(/C=C2\C(=O)Nc3ccc(Br)cc32)[nH]c2c1CCCC2 [Example 192, 3-[2-(5-Bromo-2-oxo-1,2-dihydroindol-3-ylidenemethyl)-4,5,6,7-tetrahydro-1H-indol-3yl]-propionic acid] | 0.004 | 10.5 | 1.4
17 | Cc1cccc2c1/C(=C/c1[nH]c3c(c1CCC(=O)O)CCCC3)C(=O)N2 [Example 193, 3-[2-(4-Methyl-2-oxo-1,2-dihydroindol-3-ylidenemethyl)-4,5,6,7-tetrahydro-1H-indol-3-yl]-propionic acid] | 44.6 | 48.6 | 13.5

Row | SMILES | IC50 [1] [µM] | IC50 [2] [µM] | IC50 [3] [µM]
18 | Cc1ccc2c(c1)/C(=C/c1[nH]c3c(c1CCC(=O)O)CCCC3)C(=O)N2 [Example 194, 3-[2-(5-Methyl-2-oxo-1,2-dihydroindol-3-ylidenemethyl)-4,5,6,7-tetrahydro-1H-indol-3-yl]-propionic acid] | 81.4 | 20.6 | 14.2
19 | O=C(O)CCc1c(/C=C2\C(=O)Nc3cc(Cl)ccc32)[nH]c2c1CCCC2 [Example 195, 3-[2-(6-Chloro-2-oxo-1,2-dihydroindol-3-ylidenemethyl)-4,5,6,7-tetrahydro-1H-indol-3-yl]-propionic acid] | 2.04 | 0.26 | 3.7
20 | COc1ccc2c(c1)NC(=O)/C2=C\c1[nH]c2c(c1CCC(=O)O)CCCC2 [Example 196, 3-[2-(6-Methoxy-2-oxo-1,2-dihydroindol-3-ylidenemethyl)-4,5,6,7-tetrahydro-1H-indol-3-yl]-propionic acid] | 33.7 | 11.3 | 3
21 | CN(C)C(=O)CCc1c(/C=C2\C(=O)Nc3ccccc32)[nH]c2c1CCCC2 [Example 197, N,N-Dimethyl-3-[2-(2-oxo-1,2-dihydroindol-3-ylidenemethyl)-4,5,6,7-tetrahydro-1H-indol-3-yl]-propionamide] | > 100 | – | 4.9
22 | NC(=O)CCc1c(/C=C2\C(=O)Nc3ccccc32)[nH]c2c1CCCC2 [Example 199, 3-[2-(2-Oxo-1,2-dihydroindol-3-ylidenemethyl)-4,5,6,7-tetrahydro-1H-indol-3-yl]-propionamide] | 0.89 | – | 3.5
23 | O=C1Nc2ccccc2/C1=C/c1[nH]c2c(c1CCC(=O)N1CCOCC1)CCCC2 [Example 200, 3-[3-(3-Morpholin-4-yl-3-oxopropyl)-4,5,6,7-tetrahydro-1H-indol-2-ylmethylene]-1,3-dihydroindol-2-one] | 11.8 | – | 8.6
24 | CNC(=O)CCc1c(/C=C2\C(=O)Nc3ccccc32)[nH]c2c1CCCC2 [Example 201, N-Methyl-3-[2-(2-oxo-1,2-dihydroindol-3-ylidenemethyl)-4,5,6,7-tetrahydro-1H-indol-3-yl]-propionamide] | 1.73 | – | 3.9
25 | O=C(O)CCc1c(/C=C2\C(=O)Nc3ncccc32)[nH]c2c1CCCC2 [Example 203, 3-[2-(2-Oxo-1,2-dihydropyrrolo[2,3-b]pyridin-3-ylidenemethyl)-4,5,6,7-tetrahydro-1H-indol-3-yl]-propionic acid] | 0.15 | – | –
26 | COc1cccc(-c2ccc3c(c2)NC(=O)/C3=C\c2[nH]c3c(c2CCC(=O)O)CCCC3)c1 [Example 204, 3-{2-[6-(3-Methoxyphenyl)-2-oxo-1,2-dihydro-indol-3-ylidenemethyl]-4,5,6,7-tetrahydro-1H-indol-3-yl}-propionic acid] | 0.68 | 4.44 | –
27 | COc1ccc(-c2ccc3c(c2)NC(=O)/C3=C\c2[nH]c3c(c2CCC(=O)O)CCCC3)cc1 [Example 205, 3-{2-[6-(4-Methoxyphenyl)-2-oxo-1,2-dihydro-indol-3-ylidenemethyl]-4,5,6,7-tetrahydro-1H-indol-3-yl}-propionic acid] | 5.43 | 1.34 | –
28 | O=C(O)CCc1c(/C=C2\C(=O)Nc3cc(-c4ccccc4)ccc32)[nH]c2c1CCCC2 [Example 206, 3-[2-(2-oxo-6-phenyl-1,2-dihydroindol-3-ylidenemethyl)-4,5,6,7-tetrahydro-1H-indol-3-yl]-propionic acid] | 0.04 | 0.74 | –
29 | CC(C)NS(=O)(=O)c1ccc2c(c1)C(=Cc1[nH]c3c(c1CCC(=O)O)CCCC3)C(=O)N2 [Example 208, 3-[2-(5-Isopropylaminosulfonyl-2-oxo-1,2-dihydroindol-3-ylidenemethyl)-4,5,6,7-tetrahydro-1H-indol-3-yl]-propionic acid] | 23.4 | 1.84 | –
30 | O=C(O)CCc1ccccc1/C=C1/C(=O)Nc2ccccc21 [Example 214, 3-[2-(2-Oxo-1,2-dihydroindol-3-ylidenemethyl)-phenyl]-propionic acid] | > 100 | > 100 | –
31 | Cc1c[nH]c(/C=C2\C(=O)Nc3ccc(Cl)cc32)c1CCC(=O)O [Example 216, 3-[2-(5-Chloro-2-oxo-1,2-dihydroindol-3-ylidenemethyl)-4-methyl-1H-pyrrol-3-yl]-propionic acid] | 0.22 | 4.75 | –
32 | Cc1c[nH]c(/C=C2\C(=O)Nc3cccc(C)c32)c1CCC(=O)O [Example 218, 3-[2-(4-Methyl-2-oxo-1,2-dihydroindol-3-ylidenemethyl)-4-methyl-1H-pyrrol-3-yl]-propionic acid] | 2.11 | – | 24.8
33 | COc1cccc(-c2ccc3c(c2)NC(=O)/C3=C\c2[nH]cc(C)c2CCC(=O)O)c1 [Example 223, 3-{2-[6-(3-Methoxyphenyl)-2-oxo-1,2-dihydro-indol-3-ylidenemethyl]-4-methyl-1H-pyrrol-3-yl}-propionic acid] | 0.781 | 1.06 | –
34 | CCOc1cccc(-c2ccc3c(c2)NC(=O)/C3=C\c2[nH]cc(C)c2CCC(=O)O)c1 [Example 224, 3-{2-[6-(3-Ethoxyphenyl)-2-oxo-1,2-dihydro-indol-3-ylidenemethyl]-4-methyl-1H-pyrrol-3-yl}-propionic acid] | 2.38 | 1.16 | –
